Data: patent US20150306154A1, “STRAINS AND METHODS USEFUL FOR MYCOTOXINS” (DuPont Nutrition Biosciences ApS, priority 2011, published 2015)
Like-named read-outs stand apart in the source and are kept apart here.

Columns and labels:
IPEC-J2 cells = type: cell-based, porcine; settings: relative to unstimulated IPEC-J2 cells
nursery pigs = settings: 3 ppm DON in diet, 7 days

Compound: CC1=C[C@H]2O[C@@H]3[C@H](O)C[C@](C)([C@@]2(CO)[C@H](O)C1=O)[C@]31CO1 [DON, deoxynivalenol]
- IL-6 gene expression fold change (IPEC-J2 cells; DON 10 ng/mL): −0.86 fold
- IL-8 gene expression fold change (IPEC-J2 cells; DON 10 ng/mL): 0.56 fold
- TNF-α gene expression fold change (IPEC-J2 cells; LPS/DON): about 5 fold
- ADFI (nursery pigs; Non-Responders): 0.71 kg
- ADG (nursery pigs; Non-Responders): 0.46 kg
- G:F (nursery pigs; Non-Responders): 0.64
- ADFI (nursery pigs; Responders): 0.42 kg
- ADG (nursery pigs; Responders): 0.26 kg
- G:F (nursery pigs; Responders): 0.61

Compound: lipopolysaccharide [LPS]
- IL-6 gene expression fold change (IPEC-J2 cells; LPS 10 ng/mL): 0.29 fold
- IL-8 gene expression fold change (IPEC-J2 cells; LPS 10 ng/mL): 0.88 fold
- TNF-α gene expression fold change (IPEC-J2 cells; LPS 10 ng/mL): 0.16 fold
